This assay deals with T1, human orexin type 2 receptor (Homo sapiens, UniProt O43614).
T1 construct: human orexin type 2 receptor cDNA was inserted into pcDNA3.1(+) plasmid vector (Invitrogen); expressed in transfected cells
T1 sequence (O43614 1-444): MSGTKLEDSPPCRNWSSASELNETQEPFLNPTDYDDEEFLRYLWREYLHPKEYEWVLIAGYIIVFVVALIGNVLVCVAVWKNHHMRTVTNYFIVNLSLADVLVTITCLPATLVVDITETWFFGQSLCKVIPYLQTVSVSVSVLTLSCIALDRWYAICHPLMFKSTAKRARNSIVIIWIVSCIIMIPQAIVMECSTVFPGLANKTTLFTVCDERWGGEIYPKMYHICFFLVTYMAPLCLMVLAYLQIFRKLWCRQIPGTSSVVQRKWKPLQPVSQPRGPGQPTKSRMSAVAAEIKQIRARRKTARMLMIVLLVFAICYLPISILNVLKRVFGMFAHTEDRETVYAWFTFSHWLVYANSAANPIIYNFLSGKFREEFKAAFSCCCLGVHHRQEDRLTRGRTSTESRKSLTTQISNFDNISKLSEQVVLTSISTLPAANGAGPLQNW
As to the kind of experiment: Measurement of orexin type 2 receptor agonist activity (calcium fluorescence, CHO cells expressing hOX2R). It counts as cell-based. The note with it: test compound 3 μM; CHO cells expressing human OX2 receptor; DMSO = 0%, orexin A (human) = 100%. The gist of the method: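 CHO-dhfr cells stably expressing hOX2R, loaded with Fluo-4 AM in HBSS/20 mM HEPES/0.1% BSA with probenecid, then given test compound. Calcium fluorescence was read for about 2 min 40 sec. Activity (%) was scaled between DMSO (0%) and 10 nM final human orexin A (100%).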

The values that follow come from US20200207734A1, “HETEROCYCLIC COMPOUND AND USE THEREOF” (Takeda Pharmaceutical Company Limited, priority 2017, published 2020).

With `CCS(=O)(=O)N[C@H]1CCN(C(=O)C2(C)CCC2)[C@H]1Cc1csc(-c2cc(F)cc(F)c2)n1` (relative stereo) [Example 316, N-(cis-2-((2-(3,5-difluorophenyl)-1,3-thiazol-4-yl)methyl)-1-((1-methylcyclobutyl)carbonyl)pyrrolidin-3-yl)ethanesulfonamide], the “OX2R agonist activity (3 μM, %)” value worked out at 104%. With `CCS(=O)(=O)N[C@H]1CCN(C(=O)C2(O)CCC2)[C@H]1Cc1csc(-c2cc(F)cc(F)c2)n1` (relative stereo) [Example 317, N-(cis-2-((2-(3,5-difluorophenyl)-1,3-thiazol-4-yl)methyl)-1-((1-hydroxycyclobutyl)carbonyl)pyrrolidin-3-yl)ethanesulfonamide], the “OX2R agonist activity (3 μM, %)” value amounted to 103%. Regarding `CCS(=O)(=O)N[C@H]1CCN(C(=O)C23CC(C2)C3)[C@H]1Cc1csc(-c2cc(F)cc(F)c2)n1` (relative stereo) [Example 318, N-(cis-1-(bicyclo[1.1.1]pent-1-ylcarbonyl)-2-((2-(3,5-difluorophenyl)-1,3-thiazol-4-yl)methyl)pyrrolidin-3-yl)ethanesulfonamide], the “OX2R agonist activity (3 μM, %)” value is 102%. Take `CS(=O)(=O)N[C@H]1CCN(C(=O)C2CCC2)[C@H]1Cc1csc(-c2ccccc2)n1` (relative stereo) [Example 319, N-(cis-1-(cyclobutylcarbonyl)-2-((2-phenyl-1,3-thiazol-4-yl)methyl)pyrrolidin-3-yl)methanesulfonamide]: the “OX2R agonist activity (3 μM, %)” value is given as 101%. In the case of `CC1(C(=O)N2CC[C@H](NS(C)(=O)=O)[C@@H]2Cc2csc(-c3cc(F)cc(F)c3)n2)CCC1` (relative stereo) [Example 322, N-(cis-2-((2-(3,5-difluorophenyl)-1,3-thiazol-4-yl)methyl)-1-((1-methylcyclobutyl)carbonyl)pyrrolidin-3-yl)methanesulfonamide], the “OX2R agonist activity (3 μM, %)” value worked out at 104%.

`CS(=O)(=O)N[C@H]1CCN(C(=O)C2(O)CCC2)[C@H]1Cc1csc(-c2cc(F)cc(F)c2)n1` (relative stereo) [Example 323, N-(cis-2-((2-(3,5-difluorophenyl)-1,3-thiazol-4-yl)methyl)-1-((1-hydroxycyclobutyl)carbonyl)pyrrolidin-3-yl)methanesulfonamide]: the “OX2R agonist activity (3 μM, %)” value was 109%. With `CS(=O)(=O)N[C@H]1CCN(C(=O)N2CCC2)[C@H]1Cc1cccc(-c2cccc(F)c2)n1` (relative stereo) [Example 333, N-(cis-1-(azetidin-1-ylcarbonyl)-2-((6-(3-fluorophenyl)pyridin-2-yl)methyl)pyrrolidin-3-yl)methanesulfonamide], the “OX2R agonist activity (3 μM, %)” value is 101%. Regarding `CS(=O)(=O)N[C@H]1CCN(C(=O)C2(O)CCC2)[C@H]1Cc1cccc(-c2cccc(F)c2)n1` (relative stereo) [Example 338, N-(cis-2-((6-(3-fluorophenyl)pyridin-2-yl)methyl)-1-((1-hydroxycyclobutyl)carbonyl)pyrrolidin-3-yl)methanesulfonamide], the “OX2R agonist activity (3 μM, %)” value was found to be 103%. With `CC(C)OC(=O)N1CCCC(NS(C)(=O)=O)C1Cc1cccc(-c2ccccc2)n1` (stereo not drawn) [Example 76, Optically Active isopropyl cis-3-((methylsulfonyl)amino)-2-((6-phenylpyridin-2-yl)methyl)piperidine-1-carboxylate], the “OX2R agonist activity (3 μM, %)” value was found to be 106%. For the compound `CCOC(=O)N1CC[C@H](NS(C)(=O)=O)[C@@H]1Cc1cccc(-c2ccccc2)c1` [Example 101, ethyl (2S,3S)-2-(biphenyl-3-ylmethyl)-3-((methylsulfonyl)amino)pyrrolidine-1-carboxylate], the “OX2R agonist activity (3 μM, %)” value is recorded as 96%.

Consider `CC(C)OC(=O)N1CCCC(NS(C)(=O)=O)C1Cc1csc(-c2ccccc2)n1` (stereo not drawn) [Example 210, Optically Active isopropyl cis-3-((methylsulfonyl)amino)-2-((2-phenyl-1,3-thiazol-4-yl)methyl)piperidine-1-carboxylate], for which the “OX2R agonist activity (3 μM, %)” value worked out at 102%.

As to `CS(=O)(=O)N[C@H]1CCN(C(=O)C2CCC2)[C@H]1Cc1cccc(-c2ccccc2)c1` [Example 261, N-((2S,3S)-2-(biphenyl-3-ylmethyl)-1-(cyclobutylcarbonyl)pyrrolidin-3-yl)methanesulfonamide], the “OX2R agonist activity (3 μM, %)” value was determined as 97%. Regarding `CS(=O)(=O)N[C@H]1CCN(C(=O)C2CCC2)[C@H]1Cc1cccc(-c2cccc(F)c2)c1` [Example 262, N-((2S,3S)-1-(cyclobutylcarbonyl)-2-((3′-fluorobiphenyl-3-yl)methyl)pyrrolidin-3-yl)methanesulfonamide], the “OX2R agonist activity (3 μM, %)” value was determined as 101%.

Turning to `CS(=O)(=O)N[C@H]1CCN(C(=O)C2(F)CCC2)[C@H]1Cc1cccc(-c2cccc(F)c2)c1` [Example 266, N-((2S,3S)-2-((3′-fluorobiphenyl-3-yl)methyl)-1-((1-fluorocyclobutyl)carbonyl)pyrrolidin-3-yl)methanesulfonamide], the “OX2R agonist activity (3 μM, %)” value is given as 107%.

As for `CC1(C(=O)N2CC[C@H](NS(C)(=O)=O)[C@@H]2Cc2cccc(-c3cccc(F)c3)c2)CCC1` [Example 305, N-((2S,3S)-2-((3′-fluorobiphenyl-3-yl)methyl)-1-((1-methylcyclobutyl)carbonyl)pyrrolidin-3-yl)methanesulfonamide], the “OX2R agonist activity (3 μM, %)” value is 105%. Take `CS(=O)(=O)N[C@H]1CCN(C(=O)C23CC(C2)C3)[C@H]1Cc1cccc(-c2cccc(F)c2)c1` [Example 306, N-((2S,3S)-1-(bicyclo[1.1.1]pent-1-ylcarbonyl)-2-((3′-fluorobiphenyl-3-yl)methyl)pyrrolidin-3-yl)methanesulfonamide]: the “OX2R agonist activity (3 μM, %)” value is on record as 100%. Turning to `CS(=O)(=O)N[C@H]1CCN(C(=O)C23CC(C2)C3)[C@H]1Cc1cccc(-c2cc(F)cc(F)c2)c1` [Example 307, N-((2S,3S)-1-(bicyclo[1.1.1]pent-1-ylcarbonyl)-2-((3′,5′-difluorobiphenyl-3-yl)methyl)pyrrolidin-3-yl)methanesulfonamide], the “OX2R agonist activity (3 μM, %)” value was 102%. With `CS(=O)(=O)N[C@H]1CCN(C(=O)C2(O)CCC2)[C@H]1Cc1cccc(-c2cccc(F)c2)c1` [Example 308, N-((2S,3S)-2-((3′-fluorobiphenyl-3-yl)methyl)-1-((1-hydroxycyclobutyl)carbonyl)pyrrolidin-3-yl)methanesulfonamide], the “OX2R agonist activity (3 μM, %)” value was determined as 107%. To `CS(=O)(=O)N[C@H]1CCN(C(=O)C2(C(F)(F)F)CCC2)[C@H]1Cc1cccc(-c2cccc(F)c2)c1` [Example 309, N-((2S,3S)-2-((3′-fluorobiphenyl-3-yl)methyl)-1-((1-(trifluoromethyl)cyclobutyl)carbonyl)pyrrolidin-3-yl)methanesulfonamide] belongs 101%.

As to `CS(=O)(=O)N[C@H]1CCN(C(=O)C2CCC2)[C@H]1Cc1cccc(-c2cc(F)cc(F)c2)c1` [Example 310, N-((2S,3S)-1-(cyclobutylcarbonyl)-2-((3′,5′-difluorobiphenyl-3-yl)methyl)pyrrolidin-3-yl)methanesulfonamide], the “OX2R agonist activity (3 μM, %)” value worked out at 102%. For `Cc1cccc(-c2cccc(C[C@H]3[C@@H](NS(C)(=O)=O)CCN3C(=O)C3CCC3)c2)c1` [Example 311, N-((2S,3S)-1-(cyclobutylcarbonyl)-2-((3′-methylbiphenyl-3-yl)methyl)pyrrolidin-3-yl)methanesulfonamide], the “OX2R agonist activity (3 μM, %)” value amounted to 103%. Turning to `COCS(=O)(=O)N[C@H]1CCN(C(=O)C2CCC2)[C@H]1Cc1cccc(-c2cccc(F)c2)c1` [Example 312, N-((2S,3S)-1-(cyclobutylcarbonyl)-2-((3′-fluorobiphenyl-3-yl)methyl)pyrrolidin-3-yl)-1-methoxymethanesulfonamide], the “OX2R agonist activity (3 μM, %)” value is recorded as 103%. As to `CS(=O)(=O)N[C@H]1CCN(C(=O)N2CCC2)[C@H]1Cc1cccc(-c2cccc(F)c2)c1` [Example 313, N-((2S,3S)-1-(azetidin-1-ylcarbonyl)-2-((3′-fluorobiphenyl-3-yl)methyl)pyrrolidin-3-yl)methanesulfonamide], the “OX2R agonist activity (3 μM, %)” value is recorded as 100%. The figure for `COC1(C(=O)N2CC[C@H](NS(C)(=O)=O)[C@@H]2Cc2cccc(-c3cccc(F)c3)c2)CCC1` [Example 314, N-((2S,3S)-2-((3′-fluorobiphenyl-3-yl)methyl)-1-((1-methoxycyclobutyl)carbonyl)pyrrolidin-3-yl)methanesulfonamide] is 107%.

In the case of `CS(=O)(=O)N[C@H]1CCN(C(=O)C2CCC2)[C@H]1Cc1csc(-c2cccc(F)c2)n1` [Example 320, N-((2S,3S)-1-(cyclobutylcarbonyl)-2-((2-(3-fluorophenyl)-1,3-thiazol-4-yl)methyl)pyrrolidin-3-yl)methanesulfonamide], the “OX2R agonist activity (3 μM, %)” value was determined as 103%. With `O=C(C1CCC1)N1CC[C@H](NS(=O)(=O)C2CC2)[C@@H]1Cc1csc(-c2ccccc2)n1` [Example 321, N-((2S,3S)-1-(cyclobutylcarbonyl)-2-((2-phenyl-1,3-thiazol-4-yl)methyl)pyrrolidin-3-yl)cyclopropanesulfonamide], the “OX2R agonist activity (3 μM, %)” value came out at 104%.
